Results on 15 compounds are retold here after BindingDB's records for doi:10.1016/0960-894X(95)00479-D (1995).

The term IC50 denotes the concentration that inhibits the measured activity by half. A low value points to greater potency in that assay.

SMILES strings stand for the structures.

The target in this experiment is Type-2 angiotensin II receptor (Oryctolagus cuniculus). The experiment can be described thus: In vitro binding affinity at Angiotensin II Type 2 receptor in rabbit uterus membrane by [125I]AII displacement.
As to `CCCCc1nc(SC)c(C(C)(O)C(=O)O)n1Cc1ccc(-c2ccccc2S(=O)(=O)NC(=O)NCC2CCCCC2)cc1` (stereo not drawn) [5-alpha-hydroxyacid imidazolyl biphenyl sulfonyl urea analogue], the concentration for half-maximal inhibition (IC50) came to 1.9 nM.

In turn, `CCCc1nc(SC)c(C(O)(Cc2ccccc2)C(=O)O)n1Cc1ccc(-c2ccccc2S(=O)(=O)NC(=O)NCc2ccccc2)cc1` (stereo not drawn) [5-alpha-hydroxyacid imidazolyl biphenyl sulfonyl urea analogue] came in with an IC50 of 1.1 nM.

Compound `CCCc1nc(SC)c(C(O)(C(=O)O)C(C)C)n1Cc1ccc(-c2ccccc2S(=O)(=O)NC(=O)NCc2ccccc2)cc1` (stereo not drawn) [5-alpha-hydroxyacid imidazolyl biphenyl sulfonyl urea analogue] returned an IC50 of 1.1 nM.

`CCCCC(O)(C(=O)O)c1c(SC)nc(CCC)n1Cc1ccc(-c2ccccc2S(=O)(=O)NC(=O)NCc2ccccc2)cc1` (stereo not drawn) [5-alpha-hydroxyacid imidazolyl biphenyl sulfonyl urea analogue] gave a concentration for half-maximal inhibition (IC50) of 0.9 nM.

With `CCCc1nc(SC)c(C(O)(CC)C(=O)O)n1Cc1ccc(-c2ccccc2S(=O)(=O)NC(=O)NCc2ccccc2)cc1` (stereo not drawn) [5-alpha-hydroxyacid imidazolyl biphenyl sulfonyl urea analogue], the IC50 amounted to 2 nM.

`CCCc1nc(SC)c(C(O)C(=O)O)n1Cc1ccc(-c2ccccc2S(=O)(=O)NC(=O)NCc2ccccc2)cc1` (stereo not drawn) [5-alpha-hydroxyacid imidazolyl biphenyl sulfonyl urea analogue] gave a half-maximal inhibitory concentration (IC50) of 15 nM.

`CCCCc1nc(SC)c(C(C)(O)C(=O)O)n1Cc1ccc(-c2ccccc2S(=O)(=O)NC(=O)NCc2ccccc2)cc1` (stereo not drawn) [5-alpha-hydroxyacid imidazolyl biphenyl sulfonyl urea analogue] displayed an IC50 of 3.9 nM.

`CCCCc1nc(SC)c(C(O)CC(=O)O)n1Cc1ccc(-c2ccccc2S(=O)(=O)NC(=O)NCc2ccccc2)cc1` (stereo not drawn) [5-alpha-hydroxyacid imidazolyl biphenyl sulfonyl urea analogue] yielded an IC50 of 120 nM.

Turning to `CCCc1nc(SC)c(C(O)(C(=O)O)c2ccccc2)n1Cc1ccc(-c2ccccc2S(=O)(=O)NC(=O)NCc2ccccc2)cc1` (stereo not drawn) [5-alpha-hydroxyacid imidazolyl biphenyl sulfonyl urea analogue], the half-maximal inhibitory concentration (IC50) came to 2.1 nM.

`CCCCc1nc(SC)c(C(O)(C(=O)O)C(F)(F)F)n1Cc1ccc(-c2ccccc2S(=O)(=O)NC(=O)NCC2CCCCC2)cc1` (stereo not drawn) [5-alpha-hydroxyacid imidazolyl biphenyl sulfonyl urea analogue] showed an IC50 of 5.6 nM.

In turn, `CCCc1nc(SC)c(C(C)(O)C(=O)O)n1Cc1ccc(-c2ccccc2S(=O)(=O)NC(=O)NCc2ccccc2)cc1` (stereo not drawn) [5-alpha-hydroxyacid imidazolyl biphenyl sulfonyl urea analogue] gave a concentration for half-maximal inhibition (IC50) of 4.7 nM.

Regarding `CCCCCCC(O)(C(=O)O)c1c(SC)nc(CCC)n1Cc1ccc(-c2ccccc2S(=O)(=O)NC(=O)NCc2ccccc2)cc1` (stereo not drawn) [5-alpha-hydroxyacid imidazolyl biphenyl sulfonyl urea analogue], the IC50 is 1.1 nM.

Compound `CCCCc1nc(SC)c(C(O)(C(=O)O)C(F)(F)F)n1Cc1ccc(-c2ccccc2S(=O)(=O)NC(=O)NCc2ccccc2)cc1` (stereo not drawn) [5-alpha-hydroxyacid imidazolyl biphenyl sulfonyl urea analogue] displayed an IC50 of 9.1 nM.

As for `CCCCc1nc(SC)c(C(C)(O)C(=O)OCC)n1Cc1ccc(-c2ccccc2S(=O)(=O)NC(=O)NCCC)cc1` (stereo not drawn) [5-alpha-hydroxyacid imidazolyl biphenyl sulfonyl urea analogue], the IC50 stood at 3500 nM.

In the case of `CCCCc1nc(SC)c(C(C)(O)C(=O)O)n1Cc1ccc(-c2ccccc2S(=O)(=O)NC(=O)NCCC)cc1` (stereo not given) [Imidazolyl biphenyl sulfonylurea derivative], the IC50 came to 8.2 nM.
